Where a name gives a salt, the structure may show the parent alone.

The IC50 is the concentration at which inhibition is half-maximal.

In the assay the target is T1, full length SGK1 (Homo sapiens, UniProt O00141).
T1 construct: 125 μM full length SGK1 (Life Technologies Part #PR7358A); purchased Life Technologies PR7358A
T1 sequence (O00141 1-431): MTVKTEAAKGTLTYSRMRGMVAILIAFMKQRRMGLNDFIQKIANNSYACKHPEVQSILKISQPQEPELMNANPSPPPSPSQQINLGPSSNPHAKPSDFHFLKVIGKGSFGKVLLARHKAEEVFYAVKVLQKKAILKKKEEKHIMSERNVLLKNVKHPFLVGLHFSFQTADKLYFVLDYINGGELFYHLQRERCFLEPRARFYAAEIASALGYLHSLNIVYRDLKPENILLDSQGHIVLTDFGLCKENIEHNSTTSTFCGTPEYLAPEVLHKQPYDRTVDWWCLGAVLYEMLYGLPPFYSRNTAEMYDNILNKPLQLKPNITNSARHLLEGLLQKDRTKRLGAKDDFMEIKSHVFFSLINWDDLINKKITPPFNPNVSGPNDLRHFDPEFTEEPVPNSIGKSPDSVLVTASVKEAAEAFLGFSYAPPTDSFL
Kind of assay: SGK1 inhibition Assay A (Caliper LabChip electrophoretic separation of fluorescent peptide substrate and phosphorylated product). In kind it is biochemical. As to conditions: Assay A; 20 μM ATP, 40 min incubation; read-out: SGK1 IC50.
In the case of `Cc1nc(C)c(C(=O)N[C@@H]2CCCN(c3cc(-c4ccc(C#N)nc4)n4ncnc(N)c34)C2)s1` [Example 512, (R)-N-(1-(4-amino-7-(6-cyanopyridin-3-yl)pyrrolo[2,1-f][1,2,4]triazin-5-yl)piperidin-3-yl)-2.4-dimethylthiazole-5-carboxamide], the IC50 is 66 nM.

For `CN(C)CCOc1c(C(=O)N[C@@H]2CCCN(c3cc(-c4ccc(C#N)c(F)c4)n4ncnc(N)c34)C2)[nH]c2ccccc12` [Example 368, (R)-N-(1-(4-amino-7-(4-cyano-3-fluorophenyl)pyrrolo[2,1-f][1,2,4]triazin-5-yl)piperidin-3-yl)-3-(2-(dimethylamino)ethoxy)-1H-indole-2-carboxamide], the IC50 was 36 nM.

On to `CC(=O)N1CC=C(c2cc(N3CCC[C@@H](NC(=O)c4sc(C(F)F)cc4C4CCN(C(C)C)C4)C3)c3c(N)ncnn23)C1` (stereo partly drawn) [Example 399, N-((R)-1-(7-(1-acetyl-2,5-dihydro-1H-pyrrol-3-yl)-4-aminopyrrolo[2,1-f][1,2,4]triazin-5-yl)piperidin-3-yl)-5-(difluoromethyl)-3-(1-isopropylpyrrolidin-3-yl)thiophene-2-carboxamide], for which the IC50 stood at 310 nM.

On to `CC(=O)N1CC=C(c2cc(N3CCC[C@@H](NC(=O)c4cccc(NCCS(C)(=O)=O)n4)C3)c3c(N)ncnn23)C1` [Example 767, (R)-N-(1-(7-(1-acetyl-2,5-dihydro-1H-pyrrol-3-yl)-4-aminopyrrolo[2,1-f][1,2,4]triazin-5-yl)piperidin-3-yl)-6-((2-(methylsulfonyl)ethyl)amino)picolinamide], for which the IC50 worked out at 24 nM.

With `COC(=O)N1CC=C(c2cc(N3CCC[C@@H](NC(=O)c4sc(Cl)cc4OC4CCNC4)C3)c3c(N)ncnn23)C1` (stereo partly drawn) [Example 570, Methyl 3-(4-amino-5-((3R)-3-(5-chloro-3-(pyrrolidin-3-yloxy)thiophene-2-carboxamido)piperidin-1-yl)pyrrolo[2,1-f][1,2,4]triazin-7-yl)-2,5-dihydro-1H-pyrrole-1-carboxylate], the IC50 is 3 nM.

As for `Nc1ncnn2c(-c3ccc(=O)[nH]c3)cc(N3CCC[C@@H](NC(=O)c4ccc(C(F)F)s4)C3)c12` [Example 526, (R)-N-(1-(4-amino-7-(6-oxo-1,6-dihydropyridin-3-yl)pyrrolo[2,1-f][1,2,4]triazin-5-yl)piperidin-3-yl)-5-(difluoromethyl)thiophene-2-carboxamide], the half-inhibitory concentration (IC50) came out at 190 nM.

Regarding `CN(C)CCOc1cc(Cl)sc1C(=O)N[C@@H]1CCCN(c2cc(C3=CCN(C(=O)C4CCC4)C3)n3ncnc(N)c23)C1` [Example 178, (R)-N-(1-(4-amino-7-(1-(cyclobutanecarbonyl)-2,5-dihydro-1H-pyrrol-3-yl)pyrrolo[2,1-f][1,2,4]triazin-5-yl)piperidin-3-yl)-5-chloro-3-(2-(dimethylamino)ethoxy) thiophene-2-carboxamide, 2 TFA], the IC50 was 6 nM.

Take `CCOC(=O)[C@H]1CCCN(c2cc(-c3ccc(S(C)(=O)=O)cc3)n3ncnc(N)c23)C1` [Example 1, ethyl (S)-1-(4-amino-7-(4-(methylsulfonyl)phenyl)pyrrolo[2,1-f][1,2,4]triazin-5-yl)piperidine-3-carboxylate]: the IC50 is 2990 nM.

Regarding `CC(C)Cn1cc(-c2cc(N3CCC[C@@H](NC(=O)c4[nH]c5ccccc5c4OCCN(C)C)C3)c3c(N)ncnn23)ccc1=O` [Example 369, (R)-N-(1-(4-amino-7-(1-isobutyl-6-oxo-1,6-dihydropyridin-3-yl)pyrrolo[2,1-f][1,2,4]triazin-5-yl)piperidin-3-yl)-3-(2-(dimethylamino)ethoxy)-1H-indole-2-carboxamide], the concentration for half-maximal inhibition (IC50) was found to be 196 nM.

As for `COC(=O)N1CC=C(c2cc(N3CCC[C@@H](NC(=O)c4sc(C(F)F)cc4OC4COC4)C3)c3c(N)ncnn23)C1` [Example 434, methyl (R)-3-(4-amino-5-(3-(5-(difluoromethyl)-3-(oxetan-3-yloxy)thiophene-2-carboxamido)piperidin-1-yl)pyrrolo[2,1-f][1,2,4]triazin-7-yl)-2,5-dihydro-1H-pyrrole-1-carboxylate], the IC50 is 10 nM.

As for `COC(=O)N1CC=C(c2cc(N3CCC[C@@H](NC(=O)c4sc(C(F)F)cc4OCC4CCNCC4)C3)c3c(N)ncnn23)C1` [Example 351, methyl (R)-3-(4-amino-5-(3-(5-(difluoromethyl)-3-(piperidin-4-yl-methoxy)thiophene-2-carboxamido)piperidin-1-yl)pyrrolo[2,1-f][1,2,4]triazin-7-yl)-2,5-dihydro-1H-pyrrole-1-carboxylate], the IC50 was 8 nM.

As to `CC(C)c1cccc(C(=O)N[C@@H]2CCCN(c3cc(-c4ccc(S(C)(=O)=O)cc4)n4ncnc(N)c34)C2)c1` [Example 81, (R)-N-(1-(4-amino-7-(4-(methylsulfonyl)phenyl)pyrrolo[2,1-f][1,2,4]triazin-5-yl)piperidin-3-yl)-3-isopropylbenzamide], the IC50 was found to be 32 nM.

Regarding `COC(=O)N1CC=C(c2cc(N3CCC[C@@H](NC(=O)c4n[nH]c5ccc(N)cc45)C3)c3c(N)ncnn23)C1` [Example 689, methyl (R)-3-(4-amino-5-(3-(5-amino-1H-indazole-3-carboxamido)piperidin-1-yl)pyrrolo[2,1-f][1,2,4]triazin-7-yl)-2,5-dihydro-1H-pyrrole-1-carboxylate], the IC50 is 53 nM.

For the compound `Cc1cc(C(=O)N[C@@H]2CCCN(c3cc(-c4ccc(S(C)(=O)=O)cc4)n4ncnc(N)c34)C2)sn1` [Example 73, (R)-N-(1-(4-amino-7-(4-(methylsulfonyl)phenyl)pyrrolo[2,1-f][1,2,4]triazin-5-yl)piperidin-3-yl)-3-methylisothiazole-5-carboxamide], the IC50 was determined as 8 nM.

On to `CS(=O)(=O)c1ccc(-c2cc(N3CCC[C@@H](NC(=O)c4ccc(C5CC5)s4)C3)c3c(N)ncnn23)cc1` [Example 92, (R)-N-(1-(4-amino-7-(4-(methylsulfonyl)phenyl)pyrrolo[2,1-f][1,2,4]triazin-5-yl)piperidin-3-yl)-5-cyclopropylthiophene-2-carboxamide, TFA], for which the IC50 was 10 nM.

For the compound `CS(=O)(=O)c1ccc(-c2cc(N3CCC[C@@H](NC(=O)c4ccn[nH]4)C3)c3c(N)ncnn23)cc1` [Example 38, (R)-N-(1-(4-amino-7-(4-(methylsulfonyl)phenyl)pyrrolo[2,1-f][1,2,4]triazin-5-yl)piperidin-3-yl)-1H-pyrazole-5-carboxamide], the IC50 turned out to be 22 nM.

On to `CN(C)CCOc1cc(Cl)sc1C(=O)N[C@@H]1CCCN(c2cc(-c3ccc(-n4cnnn4)c(F)c3)n3ncnc(N)c23)C1` [Example 188], for which the IC50 came out at 4 nM.

Turning to `CC(=O)N1CC=C(c2cc(N3CCC[C@@H](NC(=O)C4=NNC(=O)CC4)C3)c3c(N)ncnn23)C1` [Example 464, (R)-N-(1-(7-(1-acetyl-2,5-dihydro-1H-pyrrol-3-yl)-4-aminopyrrolo[2,1-f][1,2,4]triazin-5-yl)piperidin-3-yl)-6-oxo-1,4,5,6-tetrahydropyridazine-3-carboxamide], the IC50 was determined as 636 nM.

On to `CC(=O)N1CC=C(c2cc(N3CCC[C@@H](NC(=O)c4sc(Cl)cc4OC4CCN(C)CC4F)C3)c3c(N)ncnn23)C1` (stereo partly drawn) [Example 605, N-((R)-1-(7-(1-acetyl-2,5-dihydro-1H-pyrrol-3-yl)-4-aminopyrrolo[2,1-f][1,2,4]triazin-5-yl)piperidin-3-y1)-5-chloro-3-((3-fluoro-1-methylpiperidin-4-yl)oxy)thiophene-2-carboxamide], for which the IC50 was 3 nM.

As for `COC(=O)N1CC=C(c2cc(N3CCC[C@@H](NC(=O)c4sc(Cl)cc4OC4CCNC(C)(C)C4)C3)c3c(N)ncnn23)C1` (mixture of isomers) [Example 628, methyl 3-(4-amino-5-((3R)-3-(5-chloro-3-((2,2-dimethylpiperidin-4-yl)oxy)thiophene-2-carboxamido)piperidin-1-yl)pyrrolo[2,1-f][1,2,4]triazin-7-y1)-2,5-dihydro-1H-pyrrole-1-carboxylate], the IC50 came to 1 nM.

On to `CC(=O)N1CC=C(c2cc(N3CCC[C@@H](NC(=O)c4sc(C(F)F)cc4OC4CCNCC4)C3)c3c(N)ncnn23)C1` [Example 347, (R)—N-(1-(7-(1-acetyl-2,5-dihydro-1H-pyrrol-3-yl)-4-aminopyrrolo[2,1-f][1,2,4]triazin-5-yl)piperidin-3-yl)-5-(difluoromethyl)-3-(piperidin-4-yloxy)thiophene-2-carboxamide], for which the IC50 was 9 nM.

In the case of `N#Cc1ncc(-c2cc(N3CCC[C@@H](NC(=O)c4ccc(Cl)s4)C3)c3c(N)ncnn23)cc1C(F)(F)F` [Example 531, (R)-N-(1-(4-amino-7-(6-cyano-5-(trifluoromethyl)pyridin-3-yl)pyrrolo[2,1-f][1,2,4]triazin-5-yl)piperidin-3-yl)-5-chlorothiophene-2-carboxamide], the IC50 is 18 nM.

As to `Nc1ncnn2c(-c3ccc(OC(F)F)cc3)cc(N3CCC[C@@H](NC(=O)c4ccc(Cl)s4)C3)c12` [Example 225, (R)-N-(1-(4-amino-7-(4-(difluoromethoxy)phenyl)pyrrolo [2,1-f][1,2,4]triazin-5-yl)piperidin-3-yl)-5-chlorothiophene-2-carboxamide, TFA], the IC50 came out at 15 nM.

For `CN1CCC(c2cc(C(F)F)sc2C(=O)N[C@@H]2CCCN(c3cc(-c4ccc(C(N)=O)nc4)n4ncnc(N)c34)C2)C1` (stereo partly drawn) [Example 402, 5-(4-amino-5-((3R)-3-(5-(difluoromethyl)-3-(1-methylpyrrolidin-3-yl)thiophene-2-carboxamido)piperidin-1-yl)pyrrolo[2,1-f][1,2,4]triazin-7-yl)picolinamide], the IC50 was determined as 219 nM.
